Test: xn = mol fraction of the nth substance listed
Settings: Liquid, Taylor dispersion method, x1 = 0

Compound `O=C=O` [carbon dioxide] + O has a binary diffusion coefficient (298 K, 14000 kPa) of 2.23e-09 m2/s, a binary diffusion coefficient (298 K, 31600 kPa) of 2.26e-09 m2/s and a binary diffusion coefficient (298 K, 47700 kPa) of 2.22e-09 m2/s. For the same compound, the binary diffusion coefficient (323 K, 14200 kPa) was 3.64e-09 m2/s, the binary diffusion coefficient (323 K, 31800 kPa) was 3.72e-09 m2/s and the binary diffusion coefficient (323 K, 48600 kPa) was 3.94e-09 m2/s. For the same compound, the binary diffusion coefficient (348 K, 14900 kPa) was 5.39e-09 m2/s, the binary diffusion coefficient (348 K, 31800 kPa) was 5.31e-09 m2/s and the binary diffusion coefficient (348 K, 49300 kPa) was 5.37e-09 m2/s. It also gave a binary diffusion coefficient (373 K, 14900 kPa) of 7.42e-09 m2/s, a binary diffusion coefficient (373 K, 31000 kPa) of 7.52e-09 m2/s and a binary diffusion coefficient (373 K, 48500 kPa) of 7.68e-09 m2/s. The binary diffusion coefficient (398 K, 14300 kPa) was 9.95e-09 m2/s, the binary diffusion coefficient (398 K, 30900 kPa) was 1.01e-08 m2/s and the binary diffusion coefficient (398 K, 48000 kPa) was 1.02e-08 m2/s. For the same compound, the binary diffusion coefficient (423 K, 14300 kPa) was 1.23e-08 m2/s and the binary diffusion coefficient (423 K, 48000 kPa) was 1.22e-08 m2/s.

`N#N` [nitrogen] + O gave a binary diffusion coefficient (298 K, 12000 kPa) of 1.99e-09 m2/s, a binary diffusion coefficient (298 K, 25000 kPa) of 2e-09 m2/s and a binary diffusion coefficient (298 K, 44600 kPa) of 1.98e-09 m2/s. The binary diffusion coefficient (323 K, 14600 kPa) was 3.28e-09 m2/s, the binary diffusion coefficient (323 K, 25100 kPa) was 3.47e-09 m2/s and the binary diffusion coefficient (323 K, 45000 kPa) was 3.2e-09 m2/s. The binary diffusion coefficient (373 K, 14800 kPa) was 6.62e-09 m2/s, the binary diffusion coefficient (373 K, 45000 kPa) was 6.42e-09 m2/s and the binary diffusion coefficient (423 K, 26900 kPa) was 1.07e-08 m2/s. The binary diffusion coefficient (423 K, 45900 kPa) was 1.04e-08 m2/s.

From the NIST ThermoML archive (doi:10.1021/je401008s)
